Test results published in US9278940B2, “Cyclic amines as bromodomain inhibitors” (Zenith Epigenetics Corp., priority 2012, dated 2016).
Counter-ions that a name gives are not always drawn.

Legend:
Brd4 bromodomain 1 = target: T1, Brd4 bromodomain 1 (Homo sapiens, UniProt O60885); assay: Inhibition of tetra-acetylated histone H4 binding to BET bromodomain (TR-FRET); parameters: key: Active: Compounds with an IC50 value less than 30 μM were deemed to be active.; Not Active: Compounds with an IC50 value less than 30 μM were deemed to be active; details: Brd4 bromodomain 1, tetra-acetylated histone H4 peptide
T1 construct: made in house; host or cells: E. coli BL21(DE3)
How it was run: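 N-terminally His-tagged bromodomain (200 nM, E. coli-expressed, Ni affinity and SEC purified) with biotinylated tetra-acetylated H4 peptide (25-50 nM), Eu-cryptate streptavidin and XL665 anti-His; 2 h at room temperature in HEPES pH 7.4/KF buffer, 0.2% DMSO. The 665/620 nm ratio decrease gave IC50 from dose-response curves.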

Human AML MV-4-11 cells = assay: Inhibition of cell proliferation in MV4-11 cells; assay type: cell-based; parameters: key: Active: Compounds with an IC50 value less than 30 μM are deemed to be active.; Not Active: Compounds with an IC50 value less than 30 μM are deemed to be active; details: 72 hours
How it was run: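 Exponentially growing MV-4-11 cells were treated immediately with two-fold compound dilutions from 30 µM to 0.2 µM in triplicate for 72 h at 37 °C. Viability was read by MTS (CellTiter Aqueous One) absorbance at 490 nm after 3-4 h; % proliferation vs DMSO gave IC50.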

hMCP-1 mRNA = assay: Inhibition of hMCP-1 mRNA transcription in human PBMCs; assay type: cell-based; parameters: key: Active: Compounds with an IC50 value less than 30 μM are deemed to be active.; Not Active: Compounds with an IC50 value less than 30 μM are deemed to be active; details: Human Peripheral Blood Mononuclear Cells, 3 h
Protocol: In this example, hMCP-1 mRNA in human peripheral blood mononuclear cells was quantitated to measure the transcriptional inhibition of hMCP-1 when treated with a compound of the present disclosure.
Human Peripheral Blood Mononuclear Cells were plated (1.0×10^5 cells per well) in a 96-well plate in 45 μL RPMI-1640 containing 10% FBS and penicillin/streptomycin. The cells were treated with the test compound (45 μL at 2× concentration), and then the cells were incubated at 37° C. for 3 h before the cells were harvested. At time of harvest, cells were transferred to V-bottom plates and centrifuged at 800 rpm for 5 minutes. Spent media was removed and cell lysis solution (70 μL) was added the cells in each well and incubated for 5-10 min at room temperature, to allow for complete cell lysis and detachment. mRNA was then prepared using the “mRNA Catcher PLUS plate” (Invitrogen), according to the protocol supplied. After the last wash, as much wash buffer as possible was aspirated without allowing the wells to dry. […]
The eluted mRNA isolated was then used in a one-step quantitative real-time PCR reaction, using components of the Ultra Sense Kit together with Applied Biosystems primer-probe mixes. Real-time PCR data was analyzed, normalizing the Ct values for hMCP-1 to an internal control, prior to determining the fold induction of each unknown sample, relative to the control.

IL-6 and IL-17 cytokines = assay: In vivo efficacy in mouse endotoxemia model; details: C57/Bl6 mice, oral 75 mg/kg, inhibition of IL-6 and IL-17 post 4 hour LPS challenge 0.5 mg/kg intraperitoneally
Protocol: Sub lethal doses of Endotoxin (E. Coli bacterial lipopolysaccharide) were administered to animals to produce a generalized inflammatory response which was monitored by increases in secreted cytokines. Compounds were administered to C57/Bl6 mice orally at 75 mg/kg dose to evaluate inhibition in IL-6 and IL-17 cytokines post 4 hour challenge with Lipopolysaccharide (LPS) at 0.5 mg/kg dose intraperitoneally.

COc1cc(OC)c2c(=O)[nH]c(-c3cccc(N4CCN(C(C)C)CC4)n3)nc2c1 [Example 17, 2-(6-(4-Isopropylpiperazin-1-yl)pyridin-2-yl)-5,7-dimethoxyquinazolin-4(3H)-one Hydrochloride]
Active: FRET activity (IC50 < 30 μM) (Brd4 bromodomain 1) | cell proliferation activity (IC50 < 30 μM) (Human AML MV-4-11 cells) | MCP-1 activity (IC50 < 30 μM) (hMCP-1 mRNA) | In vivo activity (IL-6 and IL-17 cytokines)
